Tests used:
full-length Tau = full-length Tau (Homo sapiens, UniProt P10636); conditions: for maximum inhibition of full-length Tau aggregation: 0.05 and 0.1 mg/mL complex
Method: Tau was induced to aggregate as described previously with certain modifications. In presence heparin (17,500 Da) in the ratio of 4:1, Tau was polymerized in assembly buffer containing 20 mM BES. pH 7.4, 25 mM NaCl, 1 mM DTT, 0.01% NaN3 and protease inhibitor cocktails. The reaction mixture was incubated at 37° C. and the aggregates formation was monitored by ThS fluorescence, SDS-PAGE and TEM at certain time intervals. The Tau protein was allowed to assemble in presence and absence of compounds in increasing concentrations with constant Tau concentrations of 0.91 mg/mL and 0.28 mg/mL for full-length and four repeat Tau respectively. The changes in the conformation of Tau protein was monitored by CD spectroscopy.
(§1) Thioflavin S fluorescence assay: 5 μl of reaction mixture was diluted with 8 μM ThS in 50 mM ammonium acetate, pH 7.4 and added to 384 well plates in triplicates. Subsequently blank was also prepared for subtracting background fluorescence. The plate was incubated in the dark before measuring ThS fluorescence for 20 minutes, at an emission wavelength of 521 nm by exciting it at 440 nm in Tecan Infinite 200 PRO multimode microplate reader.

[1] = target: full-length Tau aggregates (Homo sapiens, UniProt P10636); conditions: highest concentration (range 0.01 mg/mL to 0.1 mg/mL); ThS fluorescence
Method: (§2) Disaggregation assay: The potency of the metal complexes for disaggregating the preformed Tau aggregates was also analysed. Soluble Tau was dissolved in assembly buffer and was incubated at 37° C. for PHF assembly. The formation of aggregates was analysed by fluorescence assay and SDS-PAGE. Thus formed aggregates were diluted to 0.91 mg/mL final concentration in 20 mM BES buffer, pH 7.4 and this mixture was incubated with increasing concentration of metal complex as discussed earlier.
as §1

Tau PHFs = Tau PHFs (Homo sapiens, UniProt P10636); conditions: for Tau disaggregation by TEM: 0 hour; for Tau PHF disaggregation by TEM: prolonged incubation
Method: as §2
Transmission Electron Microscopy (TEM): The degree of aggregates formation in presence of the metal complexes was analysed by TEM (Tecnai T-20). The assay mixture was diluted to 1 μM final concentration and spotted on the carbon coated copper grids. This was further stained by 2% uranyl acetate to observe the morphology of aggregates under TEM.

[2] = heparin as inducer, ThS fluorescence

Sequence of full-length Tau aggregates (P10636 1-441 isoform P10636-8): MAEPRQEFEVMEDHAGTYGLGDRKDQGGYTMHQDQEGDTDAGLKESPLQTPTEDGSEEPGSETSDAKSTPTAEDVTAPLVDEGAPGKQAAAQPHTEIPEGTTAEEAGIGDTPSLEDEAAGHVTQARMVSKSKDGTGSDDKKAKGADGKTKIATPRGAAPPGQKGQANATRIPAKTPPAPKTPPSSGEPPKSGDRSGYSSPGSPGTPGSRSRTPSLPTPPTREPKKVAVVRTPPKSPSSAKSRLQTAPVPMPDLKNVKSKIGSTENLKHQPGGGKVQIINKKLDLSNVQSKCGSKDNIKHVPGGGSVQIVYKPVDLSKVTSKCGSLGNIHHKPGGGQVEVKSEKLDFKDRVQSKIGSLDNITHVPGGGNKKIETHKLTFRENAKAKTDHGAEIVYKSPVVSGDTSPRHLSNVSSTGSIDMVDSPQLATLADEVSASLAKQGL
Sequence of Tau PHFs (P10636 1-441 isoform P10636-8): as above
Sequence of full-length Tau (P10636 1-441 isoform P10636-8): as above

[Cl][Co][Cl].c1cc(CN2CCOCC2)nc(CN2CCOCC2)c1 [L2, Cobalt(II)(2,6-bis(morpholinomethyl)pyridine)chloride]
maximum inhibition of full-length Tau aggregation (full-length Tau; [2]): about 97%
effectiveness in inhibiting aggregation compared between complexes (full-length Tau; lower concentration): more effective in comparison with L1 and L3
disaggregation of full-length Tau aggregates [1]: 72%
Tau disaggregation by TEM (Tau PHFs): very negligible effect
Tau PHF disaggregation by TEM (Tau PHFs): destructed into shorter filaments

Cobalt(II)(2,6-bis((4-methylpiperazin-1-yl)methyl)pyridine)chloride [L3]
maximum inhibition of full-length Tau aggregation (full-length Tau; [2]): about 97%
disaggregation of full-length Tau aggregates [1]: 77%
Tau disaggregation by TEM (Tau PHFs): very negligible effect
Tau PHF disaggregation by TEM (Tau PHFs): destructed into shorter filaments

Cobalt(II)(2,6-bis(piperazin-1-ylmethyl)pyridine)chloride [L1]
inhibition rate of full-length Tau aggregation (full-length Tau; highest concentration of 0.1 mg/mL, heparin as inducer, ThS fluorescence): 97%
disaggregation of full-length Tau aggregates [1]: 74%
Tau disaggregation by TEM (Tau PHFs): very negligible effect
Tau PHF disaggregation by TEM (Tau PHFs): destructed into shorter filaments
